This is an account of results in patent publication US9273095B2, “Antibiotic peptide and preparation method therefor and application therefor” (priority 2011, dated 2016).

In brackets after ≈: the same amount, converted by molar mass. Where two headings read alike, the source gives them in different places. Non-standard residues stand in square brackets, D forms with d. Residues, ends and D or L forms follow the SMILES beside them.

Data set [1] concerns candida albicans. Put plainly: microbe, parasite or virus in culture. Type of data set: cell-based. Summed up: (§1)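 Broth dilution in RPMI-1640 with PL-13 peptide diluted 10-fold from stock; inoculum 1-3×10^3 CFU/ml in the test. Strains activated at 60% humidity, 25 °C for aspergillus or 37 °C for candida; living and blank control wells included.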
Data set [2] concerns aspergillus fumigatus. Put plainly: microbe, parasite or virus in culture. Type of data set: cell-based. The essentials: as §1
Data set [3] concerns candida glabrata. Put plainly: microbe, parasite or virus in culture. Type of data set: cell-based. The essentials:
as §1

Data set [4] deals with candida tropicalis. Put plainly: microbe, parasite or virus in culture. Type of data set: cell-based. The essentials:
as §1

In data set [5] the test system is aspergillus flavous. The data set is described as follows: microbe, parasite or virus in culture. Type of data set: cell-based. Summed up: as §1
In data set [6] the test system is Enterobacter cloacae. The data set is described as follows: microbe, parasite or virus in culture. Type of data set: cell-based. The essentials:
(§2)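 Growth on drug-containing MH agar plates is read after 18 hours at 35° C to give the minimum inhibitory concentration. Two-fold drug series runs from 0.03 to 128 μg/ml; spots carry 10^4CFU each.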

The subject of data set [7] is Enterobacter aerogenes. The data set is described as follows: microbe, parasite or virus in culture. Type of data set: cell-based. Summed up:
as §2

The subject of data set [8] is Serratia marcescens. Put plainly: microbe, parasite or virus in culture. Type of data set: cell-based. Summed up: as §2
The subject of data set [9] is Feilaoti citrobacter. The data set is described as follows: microbe, parasite or virus in culture. Type of data set: cell-based. Summed up:
as §2

Data set [10] has as its system Salmonella typhimurium. The data set is described as follows: microbe, parasite or virus in culture. Type of data set: cell-based. The essentials: as §2
Data set [11] deals with Proteus vulgaris. The data set is described as follows: microbe, parasite or virus in culture. Type of data set: cell-based. Summed up: as §2
In data set [12] the test system is Acinetobacter calcoaceticus. Put plainly: microbe, parasite or virus in culture. Type of data set: cell-based. The essentials:
as §2

Data set [13] is described as follows: RP-HPLC temperature profiling: hydrophobicity and self-association. Type of data set: physicochemical. As to conditions: for Hydrophobicity tR5: retention time in RP-HPLC at pH 2, 5° C.; for Hydrophobicity tR80: retention time in RP-HPLC at pH 2, 80° C. Summed up: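 Zorbax 300 SB-C8 column, linear AB gradient 1% acetonitrile/min at 1 ml/min, 0.05% aqueous TFA (pH 2) versus 0.05% TFA in acetonitrile. Retention times followed from 5 to 80° C and normalized to random-coil control peptide C. Self-association parameter PA = maximal (tR^t−tR^5 peptide)−(tR^t−tR^5 peptide C).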

For data set [14], the system named is Enterococcus faecalis. The data set is described as follows: organism not typed. Type of data set: cell-based. Conditions: read-out: MIC. Here is the method:
The experimental strains are 37 standard strains preserved in lab and clinical isolated bacteria, including drug-resistant bacteria and quality-control bacteria selecting Staphylococcus aureus ATCC29213, Enterococcus faecalis ATCC29212, Escherichia coli ATCC25922, Pseudomonas aeruginosa ATCC27853 and klebsiella pneumoniae ATCC700603.
(1) Sensitivity test is conducted with two-fold agar dilution method and Denlay multipoint inoculator. Test bacteria are cultured with nutrient broth and brain heart infusion.
(2) The drug is double diluted into different concentration with MH broth after dissolved and then placed in the plate respectively.
(4) After solidification of the culture medium in the plate, test bacteria (10^4CFU/point) are inoculated by multipoint inoculator and cultured for 18 hours at constant 35° C. Then observe the results.

[15] abbreviates: 06-71 (VRE) Vancomycin-resistant Enterococci.
[16] abbreviates: HH22* (AMEs) Aminoglycoside-modifying enzyme.

As for `CC(=O)N[C@H](Cc1ccccc1)C(=O)N[C@H](CCCCN)C(=O)N[C@H](CCCCN)C(=O)N[C@H](CC(C)C)C(=O)N[C@H](CCCCN)C(=O)N[C@H](CCCCN)C(=O)N[C@H](CC(C)C)C(=O)N[C@H](Cc1ccccc1)C(=O)N[C@H](CO)C(=O)N[C@H](CCCCN)C(=O)N[C@H](CC(C)C)C(=O)N[C@H](Cc1c[nH]c2ccccc12)C(=O)N[C@H](CC(N)=O)C(=O)N[C@H](Cc1c[nH]c2ccccc12)C(=O)N[C@H](CCCCN)C(N)=O` [PL-18] (Ac-[dF][dK][dK][dL][dK][dK][dL][dF][dS][dK][dL][dW][dN][dW][dK]-NH2), the Minimal inhibitory concentration is 4 µg/mL (≈ 1.97 µM) in data set [1]; 16 µg/mL (≈ 7.86 µM) in data set [2]; 4 µg/mL (≈ 1.97 µM) in [3]; 2 µg/mL (≈ 0.983 µM) in [4]; more than 64 µg/mL in data set [5]. Besides, the MIC in data set [6] is 0.04 µM (≈ 0.0814 µg/mL); in data set [7], 0.04 µM (≈ 0.0814 µg/mL); in data set [8], 0.04 µM (≈ 0.0814 µg/mL); in data set [9], 0.3 µM (≈ 0.611 µg/mL); in [10] (murium), 0.3 µM (≈ 0.611 µg/mL); in data set [11], 5.3 µM (≈ 10.8 µg/mL). For the same compound, the MIC in data set [12] is recorded as 1.7 µM (≈ 3.46 µg/mL); in data set [14] (setting [15]), 1.3 µM (≈ 2.65 µg/mL); in data set [14] (setting [16]), 1.7 µM (≈ 3.46 µg/mL). In addition, the “tR(min) 5° C.” value in data set [13] (RP-HPLC temperature profiling, 5° C.) is 35.75 min. The “tR(min) 80° C.” value in data set [13] (RP-HPLC temperature profiling, 80° C.) was 33.37 min. Further, the “PA (min), association parameter” value in [13] (maximal normalized retention time difference within 5-80° C., self-association ability) is 0.56 min. In addition, the “tR(min) Max” value in data set [13] (maximal retention time during temperature profiling 5-80° C.) is on record as 35.75 min. In data set [13] (retention time difference to control peptide C at 5° C., relative hydrophobicity), the “ΔtR(X-Peptide C)(min) 5° C.” value came out at 13.19 min. The “ΔtR(X-Peptide C)(min) 80° C.” value in [13] (retention time difference to control peptide C at 80° C., relative hydrophobicity) was 13.45 min. Besides, the “Hydrophobicity tR5” value in [13] is listed as 35.75 min. The “Hydrophobicity tR80” value in data set [13] is on record as 33.37 min.

For Ac-FKRLEKLFSKIWNWK-NH2 [PL-12], the Minimal inhibitory concentration in data set [1] (JLC 33659 candida albicans) was determined as 16 µg/mL; in [1] (JLC 33660 candida albicans), 16 µg/mL; in data set [2] (JLC 30506 aspergillus fumigatus) it was 32 µg/mL; in [2] (JLC 30883 aspergillus fumigatus), 32 µg/mL; in data set [3] (JLC 30367 candida glabrata), 32 µg/mL; in [3] (JLC 31512 candida glabrata), 32 µg/mL. Moreover, the Minimal inhibitory concentration is 4 µg/mL in data set [4] (JLC 31379 candida tropicalis), 8 µg/mL in [4] (JLC 31384 candida tropicalis), more than 64 µg/mL in data set [5] (JLC 30784 aspergillus flavous) and more than 64 µg/mL in data set [5] (JLC 40437 aspergillus flavous). In addition, the MIC worked out at 0.3 µM in data set [6] (Enterobacter cloacae 45301); 0.03 µM in data set [7] (Enterobacter aerogenes 45102); 0.03 µM in data set [8] (Serratia marcescens 41002); 5.3 µM in data set [9] (Feilaoti citrobacter 48001); 5.3 µM in [10] (Salmonella typhimurium); 0.3 µM in data set [11] (Proteus vulgaris 56). In addition, the MIC is 0.03 µM in [12] (Acinetobacter calcoaceticus25001); 0.3 µM in [14] (setting [15]); 1.3 µM in data set [14] (Enterococcus faecalis ATCC29212); 0.3 µM in [14] (setting [16]); 5.3 µM in data set [14] (strain 06-7 (listed under Enterococcus faecalis)). In addition, the “Hydrophobicity tR5” value in data set [13] worked out at 38.04 min. Moreover, the “Hydrophobicity tR80” value in data set [13] was 36.10 min.
